{
  "source": "patent US10039780B2",
  "about": "(Chiesi Farmaceutici S.p.A., priority 2015, dated 2018)",
  "format_in_all_cases": "physicochemical",
  "key": {"[1]": {"assay": "Solution stability of cangrelor in purified water, reverse phase HPLC", "conditions": "1 mg/mL in purified water"}, "[2]": {"assay": "Photostability of solid cangrelor in quartz cuvettes, reverse phase HPLC", "protocol": "Namely, solid cangrelor was placed in two quartz cuvettes. Both cuvettes were placed in a chamber and exposed to a combination of […] (near UV) and […] (visible) light for a total of 7.8×10^6 LUX hours and 221 watt hours/m^2, but one cuvette was wrapped in aluminum foil. After 17 days, the levels of impurities in the sample were determined by reverse phase HPLC."}, "[3]": {"assay": "Accelerated pH stability of cangrelor in buffer solutions, reverse phase HPLC", "conditions": "1 mg/mL, 7 days at 40° C. protected from light", "protocol": "The extent of degradation was determined using a reverse phase HPLC method."}, "[4]": {"assay": "Long term stability at 25° C. and 60% relative humidity (HPLC, ion chromatography, Karl-Fischer)", "conditions": "for Impurity A concentration / Impurity B concentration / Total impurities concentration / Moisture concentration / Impurity E concentration / Impurity C concentration: 25° C./60% relative humidity; for Moisture concentration: Karl-Fischer; for Impurity E concentration: ion chromatography; for storage stability, conclusion in words: storage at 25° C./60% relative humidity", "protocol": "Their pH was adjusted to 8.5 prior to lyophilization and they were stored in glass vials stoppered with a stopper specifically selected for its ability to retain as little moisture as possible after autoclaving and after drying for 8 h at 105° C. […] Cangrelor lots API A-B are cangrelor tetrasodium. They were stored in double polyethylene bags in […]. […] In addition their moisture content was determined by Karl-Fischer titration."}, "[5]": {"assay": "Hygroscopicity by dynamic vapor adsorption analysis"}, "[6]": {"conditions": "after 8 days, 4° C. and ambient humidity"}, "[7]": {"conditions": "after 8 days, 25° C. and 60% relative humidity"}, "[8]": {"conditions": "after 8 days, 40° C. and ambient humidity"}},
  "data": [
    {"smiles": "CSCCNc1nc(SCCC(F)(F)F)nc2c1ncn2[C@@H]1O[C@H](COP(=O)(O)OP(=O)(O)C(Cl)(Cl)P(=O)(O)O)[C@@H](O)[C@H]1O", "note": "[Cangrelor, [dichloro-[[[(2R,3S,4R,5R)-3,4-dihydroxy-5-[6-(2-methylsulfanylethylamino)-2-(3,3,3-trifluoropropylsulfanyl)purin-9-yl]oxolan-2-yl]methoxy-hydroxyphosphoryl]oxy-hydroxyphosphoryl]methyl]phosphonic acid]", "values": [
      {"measurement": "Cangrelor measured level", "setting": "[1]; Initial", "result": 98.23, "unit": "% w/w"},
      {"measurement": "Impurity A measured level", "setting": "[1]; Initial", "result": 0.16, "unit": "% w/w"},
      {"measurement": "Impurity C measured level", "setting": "[1]; Initial", "result": 0.28, "unit": "% w/w"},
      {"measurement": "Total Impurities measured level", "setting": "[1]; Initial", "result": 1.76, "unit": "% w/w"},
      {"measurement": "Cangrelor measured level", "setting": "[1]; [6]", "result": 98.45, "unit": "% w/w"},
      {"measurement": "Impurity A measured level", "setting": "[1]; [6]", "result": 0.22, "unit": "% w/w"},
      {"measurement": "Impurity C measured level", "setting": "[1]; [6]", "result": 0.26, "unit": "% w/w"},
      {"measurement": "Total Impurities measured level", "setting": "[1]; [6]", "result": 1.54, "unit": "% w/w"},
      {"measurement": "Cangrelor measured level", "setting": "[1]; [7]", "result": 96.94, "unit": "% w/w"},
      {"measurement": "Impurity A measured level", "setting": "[1]; [7]", "result": 1.58, "unit": "% w/w"},
      {"measurement": "Impurity C measured level", "setting": "[1]; [7]", "result": 0.27, "unit": "% w/w"},
      {"measurement": "Total Impurities measured level", "setting": "[1]; [7]", "result": 3.06, "unit": "% w/w"},
      {"measurement": "Cangrelor measured level", "setting": "[1]; [8]", "result": 90.46, "unit": "% w/w"},
      {"measurement": "Impurity A measured level", "setting": "[1]; [8]", "result": 7.50, "unit": "% w/w"},
      {"measurement": "Impurity C measured level", "setting": "[1]; [8]", "result": 0.37, "unit": "% w/w"},
      {"measurement": "Total Impurities measured level", "setting": "[1]; [8]", "result": 9.56, "unit": "% w/w"},
      {"measurement": "total level of impurities", "setting": "[2]; solid cangrelor, initially", "result": "0.8 % (w/w)"},
      {"measurement": "total level of impurities", "setting": "[2]; solid, exposed sample, near UV and visible light, 7.8×10^6 LUX hours and 221 watt hours/m^2, after 17 days", "result": "4.3 % (w/w)"},
      {"measurement": "total level of impurities", "setting": "[2]; solid, shielded sample (cuvette wrapped in aluminum foil), after 17 days", "result": "1.2 % (w/w)"},
      {"measurement": "Impurity A", "setting": "[3]; pH 1.0, 0.1M HCl", "result": 28.51, "unit": "% w/w"},
      {"measurement": "Impurity D", "setting": "[3]; pH 1.0, 0.1M HCl", "result": 68.12, "unit": "% w/w"},
      {"measurement": "Total Impurities", "setting": "[3]; pH 1.0, 0.1M HCl", "result": 97.28, "unit": "% w/w"},
      {"measurement": "Impurity A", "setting": "[3]; pH 3.0, Phosphate", "result": 28.69, "unit": "% w/w"},
      {"measurement": "Impurity D", "setting": "[3]; pH 3.0, Phosphate", "result": 0.81, "unit": "% w/w"},
      {"measurement": "Total Impurities", "setting": "[3]; pH 3.0, Phosphate", "result": 31.48, "unit": "% w/w"},
      {"measurement": "Impurity A", "setting": "[3]; pH 5.0, Phosphate", "result": 20.70, "unit": "% w/w"},
      {"measurement": "Total Impurities", "setting": "[3]; pH 5.0, Phosphate", "result": 22.16, "unit": "% w/w"},
      {"measurement": "Impurity A", "setting": "[3]; pH 7.0, Phosphate", "result": 14.31, "unit": "% w/w"},
      {"measurement": "Total Impurities", "setting": "[3]; pH 7.0, Phosphate", "result": 15.71, "unit": "% w/w"},
      {"measurement": "Impurity A", "setting": "[3]; pH 9.0, Phosphate", "result": 3.25, "unit": "% w/w"},
      {"measurement": "Total Impurities", "setting": "[3]; pH 9.0, Phosphate", "result": 4.90, "unit": "% w/w"},
      {"measurement": "Impurity A", "setting": "[3]; pH 11.0, Phosphate", "result": 2.61, "unit": "% w/w"},
      {"measurement": "Total Impurities", "setting": "[3]; pH 11.0, Phosphate", "result": 4.28, "unit": "% w/w"},
      {"measurement": "Impurity A", "setting": "[3]; pH 12.0, 0.1M NaOH", "result": 2.42, "unit": "% w/w"},
      {"measurement": "Total Impurities", "setting": "[3]; pH 12.0, 0.1M NaOH", "result": 4.39, "unit": "% w/w"}
    ]},
    {"smiles": "CSCCNc1nc(SCCC(F)(F)F)nc2c1ncn2[C@@H]1O[C@H](COP(=O)([O-])OP(=O)([O-])C(Cl)(Cl)P(=O)([O-])[O-])[C@@H](O)[C@H]1O.[Na+].[Na+].[Na+].[Na+]", "note": "[API A]", "values": [
      {"measurement": "Impurity A concentration", "setting": "[4]; 1 month", "result": 0.28, "unit": "% w/w"},
      {"measurement": "Impurity B concentration", "setting": "[4]; 1 month", "result": 0.22, "unit": "% w/w"},
      {"measurement": "Total impurities concentration", "setting": "[4]; 1 month", "result": 1.10, "unit": "% w/w"},
      {"measurement": "Moisture concentration", "setting": "[4]; 1 month", "result": 7.7, "unit": "% w/w"},
      {"measurement": "Impurity E concentration", "setting": "[4]; 1 month", "result": 0.08, "unit": "% w/w"},
      {"measurement": "Impurity A concentration", "setting": "[4]; 3 months", "result": 0.47, "unit": "% w/w"},
      {"measurement": "Impurity B concentration", "setting": "[4]; 3 months", "result": 0.33, "unit": "% w/w"},
      {"measurement": "Total impurities concentration", "setting": "[4]; 3 months", "result": 1.40, "unit": "% w/w"},
      {"measurement": "Moisture concentration", "setting": "[4]; 3 months", "result": 11.3, "unit": "% w/w"},
      {"measurement": "Impurity E concentration", "setting": "[4]; 3 months", "result": 0.11, "unit": "% w/w"},
      {"measurement": "Impurity A concentration", "setting": "[4]; Initial", "result": 0.15, "unit": "% w/w"},
      {"measurement": "Impurity B concentration", "setting": "[4]; Initial", "result": 0.11, "unit": "% w/w"},
      {"measurement": "Total impurities concentration", "setting": "[4]; Initial", "result": 0.70, "unit": "% w/w"},
      {"measurement": "Moisture concentration", "setting": "[4]; Initial", "result": 4.3, "unit": "% w/w"},
      {"measurement": "Impurity E concentration", "setting": "[4]; Initial", "result": 0.06, "unit": "% w/w"},
      {"measurement": "storage stability, conclusion in words", "setting": "[4]", "result": "display significant degradation over time"}
    ]},
    {"smiles": "CSCCNc1nc(SCCC(F)(F)F)nc2c1ncn2[C@@H]1O[C@H](COP(=O)(O)OP(=O)(O)C(Cl)(Cl)P(=O)(O)O)[C@@H](O)[C@H]1O", "note": "[cangrelor tetrasodium]", "values": [
      {"measurement": "hygroscopicity", "setting": "[5]", "result": "hygroscopic"}
    ]},
    {"smiles": "CSCCNc1nc(SCCC(F)(F)F)nc2c1ncn2[C@@H]1O[C@H](COP(=O)([O-])OP(=O)([O-])C(Cl)(Cl)P(=O)([O-])[O-])[C@@H](O)[C@H]1O.[Na+].[Na+].[Na+].[Na+]", "note": "[API B]", "values": [
      {"measurement": "Impurity A concentration", "setting": "[4]; 1 month", "result": 0.36, "unit": "% w/w"},
      {"measurement": "Impurity B concentration", "setting": "[4]; 1 month", "result": 0.19, "unit": "% w/w"},
      {"measurement": "Impurity C concentration", "setting": "[4]; 1 month", "result": 0.06, "unit": "% w/w"},
      {"measurement": "Total impurities concentration", "setting": "[4]; 1 month", "result": 1.10, "unit": "% w/w"},
      {"measurement": "Moisture concentration", "setting": "[4]; 1 month", "result": 6.9, "unit": "% w/w"},
      {"measurement": "Impurity A concentration", "setting": "[4]; 3 months", "result": 0.51, "unit": "% w/w"},
      {"measurement": "Impurity B concentration", "setting": "[4]; 3 months", "result": 0.32, "unit": "% w/w"},
      {"measurement": "Impurity C concentration", "setting": "[4]; 3 months", "result": 0.08, "unit": "% w/w"},
      {"measurement": "Total impurities concentration", "setting": "[4]; 3 months", "result": 1.50, "unit": "% w/w"},
      {"measurement": "Moisture concentration", "setting": "[4]; 3 months", "result": 9.9, "unit": "% w/w"},
      {"measurement": "Impurity A concentration", "setting": "[4]; 6 months", "result": 0.70, "unit": "% w/w"},
      {"measurement": "Impurity B concentration", "setting": "[4]; 6 months", "result": 0.48, "unit": "% w/w"},
      {"measurement": "Impurity C concentration", "setting": "[4]; 6 months", "result": 0.19, "unit": "% w/w"},
      {"measurement": "Total impurities concentration", "setting": "[4]; 6 months", "result": 1.90, "unit": "% w/w"},
      {"measurement": "Moisture concentration", "setting": "[4]; 6 months", "result": 11.6, "unit": "% w/w"},
      {"measurement": "Impurity A concentration", "setting": "[4]; Initial", "result": 0.31, "unit": "% w/w"},
      {"measurement": "Impurity B concentration", "setting": "[4]; Initial", "result": 0.11, "unit": "% w/w"},
      {"measurement": "Impurity C concentration", "setting": "[4]; Initial", "result": "<0.05", "unit": "% w/w"},
      {"measurement": "Total impurities concentration", "setting": "[4]; Initial", "result": 0.80, "unit": "% w/w"},
      {"measurement": "Moisture concentration", "setting": "[4]; Initial", "result": 7.0, "unit": "% w/w"},
      {"measurement": "storage stability, conclusion in words", "setting": "[4]", "result": "display significant degradation over time"}
    ]}
  ]
}
